Where a name gives a salt, the structure may show the parent alone. Read-outs that look alike come from different tables or passages of the source.
What was measured:
[1] = system: NCI panel of 60 cell lines; test: cells
Text: The evaluation of compounds at the National Cancer Institute in their panel of 60 cell lines provides a wealth of information regarding efficacy in a wide range of tumor types and genetic backgrounds. Included within this panel are cell lines derived from leukemia, melanoma and cancers of the lung, colon, brain, ovary, breast, prostate and kidney. Use of this panel provides a measure of the efficacy of compounds in cells with alterations in many genes that are associated with neoplastic transformation including p53 and Her2/Neu as well as those involved in metabolism and those which confer multi-drug resistance. The data generated in these cell lines with the protocol described below can be used to evaluate the activity of compounds.
Cells were grown in RPMI-1640 10% FCS and plated in 96 well micro-titer plates at densities ranging from 5,000 to 40,000 cells/well. The plates were incubated for 24 hours at 37° C., 5% CO2 for 24 hours. Media containing twice the desired final concentration of the compound (5 doses spanning 4 logs) was prepared and 100 μl was added to each well containing 100 μl media plus cells to yield the desired final concentration. The plates were then incubated for an additional 48 hours.
The effect of the compound on cellular viability was determined with the Sulforhodamine B (SRB) assay, which measures total protein. Cells were fixed with cold TCA to a final concentration of 10% and incubated at 4° C. for 60 minutes. The supernatant was discarded and the plates were washed five times with water and air-dried. SRB solution at […] in 1% acetic acid was added to each well and the plates were incubated for 10 minutes at room temperature. The plates were washed five times with 1% acetic acid and air-dried. The bound stain was solubilized with 10 mM trizma base and the absorbance was read on a plate reader at […].

Casein Kinase 1 (yeast) = molecular target: T1, Casein Kinase 1 (yeast) (Schizosaccharomyces pombe, UniProt P40233); test: CK1-Yeast kinase assay (A37 assay); type: biochemical, S. pombe
T1 construct: purchased Upstate 14-112
Procedure: • 1. Assay Dilution Buffer I (ADBI, Catalog #20-108): 20 mM MOPS, pH 7.2, 25 mM β-glycerol • phosphate, 5 mM EGTA, 1 mM sodium orthovanadate, 1 mM dithiothreitol. • 2. Casein Kinase 1, active: Dilute to 10-50 ng/μl. Use 10 μl (100-500 ng) per assay point. • 3. Casein Kinase 1 Substrate Peptide (Catalog #12-423): Prepare a 1 mM sock in ADBI. Use 10 μl per assay for a final concentration of 250 μM per assay point. • 4. [γ-^32P]ATP: Stock 1 mCi/100 μl (3000 Ci/mmol, obtained from Perkin Elmer, Cat. # BLU002A). Make 10 μl aliquots (100 μCi/vial). Before starting the assay, dilute an aliquot with 90 μl of 500 μM cold ATP and 75 mM magnesium chloride in ADBI.
• 1. Add 10 μl of ADBI to a microcentrifuge tube. • 2. Add 10 μl of Casein Kinase 1, active (100-500 ng). • 3. Add 10 μl (250 μM) Casein Kinase 1 Substrate Peptide. • 4. Add 10 μl of diluted [γ-^32P]ATP mixture. • 5. Incubate for 10 minutes at in a shaking incubator at 30° C. • 6. Transfer 25 μl onto the center of a 2 cm×2 cm P81 paper. • 7. Wash the assay squares three times with 0.75% phosphoric acid. • 8. Wash the assay squares once with acetone. • 9. Transfer the assay squares to a scintillation vial and add 5 ml scintillation cocktail. • 10. Read in scintillation counter. Compare cpm of enzyme samples to cpm of control samples that contain no enzyme (background control).

CK1 delta = molecular target: T2, CK1 delta (Homo sapiens, UniProt P48730); test: CK1-Delta kinase assay (B16 assay); type: biochemical
T2 construct: purchased Upstate 14-520

normal cells = test: Activity on normal cells; type: cell-based
[2] = Maximum tolerated dose in mice; settings: mouse, in vivo, intravenous
Procedure: Determination of maximum tolerated dose (MTD). Mice at 8 weeks of age were pair-matched into groups of 5-8 animals and preliminary toxicity studies were performed with unknown test compounds. Animals were treated i.v. daily for 10 consecutive days with test compound and were weighed twice weekly. Mice were examined frequently for clinical signs of any adverse drug-related effects. Acceptable toxicity for anti-cancer drugs in mice is defined by the NCl as no mean group weight loss of over 20% and not more than 10% toxic death in treated animals.

T1 sequence (P40233 1-298 limits assumed): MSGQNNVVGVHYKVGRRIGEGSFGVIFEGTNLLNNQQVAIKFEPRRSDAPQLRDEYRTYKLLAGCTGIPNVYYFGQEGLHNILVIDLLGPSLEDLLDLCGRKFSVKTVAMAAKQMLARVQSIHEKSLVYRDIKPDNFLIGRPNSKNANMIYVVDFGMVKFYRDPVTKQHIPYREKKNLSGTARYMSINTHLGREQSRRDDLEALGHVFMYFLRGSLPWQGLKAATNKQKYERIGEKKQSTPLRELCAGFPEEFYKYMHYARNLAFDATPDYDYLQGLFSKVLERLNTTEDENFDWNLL
T2 sequence (P48730 whole entry): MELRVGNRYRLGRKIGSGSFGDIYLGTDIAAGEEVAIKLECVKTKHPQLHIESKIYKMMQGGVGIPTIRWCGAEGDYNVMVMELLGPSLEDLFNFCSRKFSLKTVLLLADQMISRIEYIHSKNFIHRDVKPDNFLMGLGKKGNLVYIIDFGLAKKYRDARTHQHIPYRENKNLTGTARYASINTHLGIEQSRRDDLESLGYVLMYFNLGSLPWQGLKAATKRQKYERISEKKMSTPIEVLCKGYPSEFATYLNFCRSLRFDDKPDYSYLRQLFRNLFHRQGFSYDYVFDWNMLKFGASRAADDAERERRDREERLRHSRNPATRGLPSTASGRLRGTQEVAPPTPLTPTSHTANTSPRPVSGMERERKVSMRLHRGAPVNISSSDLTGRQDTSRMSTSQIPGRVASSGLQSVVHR

| SMILES | NCI assay Ave TGI [1] | IC50 (Casein Kinase 1 (yeast); CK1 IC50 (A37), kinase panel, 10 μM ATP) | IC50 (Casein Kinase 1 (yeast); CSNK1A1 (CK1) Inhibition (IC50), A37, S. pombe CK1 (*)) | IC50 (CK1 delta; CK1 delta, read-out: CSNK1A1 (CK1) Inhibition (IC50), B16) | IC50 (CK1 delta; kinase panel, read-out: CK1 IC50 (B16)) | IC50 (normal cells) | MTD ([2]; CD-1 mice, read-out: MTD, 5/2/5 dose) | MTD at 5 days ([2]; nu/nu mice) | MTD ([2]; nu/nu mice, read-out: MTD, single dose) |
| --- | --- | --- | --- | --- | --- | --- | --- | --- | --- |
| CC(C)N1CCN(C(=O)COc2ccc(-c3n[nH]c4c3C(=O)c3c(NC(=O)NN5CCOCC5)cccc3-4)cc2)CC1 [Compound A37] | 2060 nM | < 3 nM | < 5 nM |  |  |  |  |  |  |
| COCCN1CCN(Cc2ccc(-c3n[nH]c4c3C(=O)c3c(NC(=O)NN5CCOCC5)cccc3-4)cc2)CC1 [Compound B16, N-[3-(4-{[4-(2-methoxyethyl)piperazinyl]methyl}phenyl)-4-oxoindeno[2,3-d]pyrazol-5-yl](morpholin-4-ylamino)carboxamide dihydrochloride] |  |  |  | < 50 nM | < 100 nM | 10900 nM | 40 mg/kg | ~100 mg/kg | ~120 mg/kg |

Reference: patent US20080146555A1, “Uses of Kinase Inhibitors and Compositions Thereof” (GPC Biotech, Inc, priority 2004, published 2008)
